By inhibition is commonly meant the change of the read-out against control, counted positive when it falls. Broadly, the Km is the substrate concentration at which the rate is half of its maximum.

Here are results for eight molecules from patent US5994334A, “Androgen synthesis inhibitors” (priority 1997, dated 1999).

For one data set, the target named is 17α-hydroxylase. The note with it: [3H]-progesterone substrate; read-out: IC50 17α-hydroxylase (Potter et al.); cited from earlier work.
The target in a further data set is C17,20-lyase. The note with it: [3H]-progesterone substrate; read-out: IC50 C17,20-lyase (Potter et al.); cited from earlier work.
Another data set relates to 5α-reductase. As to conditions: cited from earlier work.
The test system of data set [1] is LNCaP human prostatic cancer cell line. The data set is described as follows: Androgen-dependent growth of LNCaP cells. The protocol:
The ability of various inhibitors to reverse the stimulatory effect of testosterone on the growth of the LNCaP human prostatic cancer cell line was tested by comparing cell number in wells treated for 9 days with either drug vehicle only (control), 0.1 nM testosterone only, or 0.1 nM testosterone with inhibitor at 0.3, 1, 2.5, or 5 μM.

In data set [2] the test system is 5α-reductase Type I and Type II isoforms. As to conditions: cited from earlier work.
Another data set has as its system BPH patients. The note with it: cited from earlier work; for serum testosterone levels (in words): human, in vivo.
A further data set relates to TRPM-2 gene. The note with it: vs castration; cited from earlier work.
Data set [3] addresses T1, Human Prostatic 5α-Reductase (Homo sapiens, UniProt P31213).
T1 sequence (P31213 1-254): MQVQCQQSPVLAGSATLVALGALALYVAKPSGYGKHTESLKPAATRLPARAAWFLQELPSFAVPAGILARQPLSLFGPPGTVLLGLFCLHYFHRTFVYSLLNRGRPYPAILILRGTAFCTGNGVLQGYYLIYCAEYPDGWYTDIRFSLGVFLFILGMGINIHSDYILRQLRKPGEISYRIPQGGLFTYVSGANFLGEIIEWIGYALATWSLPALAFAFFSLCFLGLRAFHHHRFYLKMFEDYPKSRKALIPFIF
The experiment in a line: Inhibition of human prostatic 5α-reductase (prostatic microsomes, [3H]testosterone). As to conditions: for IC50: IC50 5α-reductase; for inhibition at 0.01 µM: read-out: % Inhibition of 5α-reductase, [I] 10 nM; for inhibition at 0.1 µM: read-out: % Inhibition of 5α-reductase, [I] 100 nM.

Data set [4] has as its system 17α-hydroxylase/C17,20-lyase. As to conditions: cited from earlier work.
Data set [5] has as its system cytochrome P450 steroidogenic enzymes. The note with it: human, in vivo; cited from earlier work.
Data set [6] has as its target T2, human 17α-hydroxylase/C17,20-lyase (Homo sapiens, UniProt P05093).
T2 construct: incubating human testicular microsomes; from tissue; host or cells: human testis, microsomes
T2 sequence (P05093 1-508): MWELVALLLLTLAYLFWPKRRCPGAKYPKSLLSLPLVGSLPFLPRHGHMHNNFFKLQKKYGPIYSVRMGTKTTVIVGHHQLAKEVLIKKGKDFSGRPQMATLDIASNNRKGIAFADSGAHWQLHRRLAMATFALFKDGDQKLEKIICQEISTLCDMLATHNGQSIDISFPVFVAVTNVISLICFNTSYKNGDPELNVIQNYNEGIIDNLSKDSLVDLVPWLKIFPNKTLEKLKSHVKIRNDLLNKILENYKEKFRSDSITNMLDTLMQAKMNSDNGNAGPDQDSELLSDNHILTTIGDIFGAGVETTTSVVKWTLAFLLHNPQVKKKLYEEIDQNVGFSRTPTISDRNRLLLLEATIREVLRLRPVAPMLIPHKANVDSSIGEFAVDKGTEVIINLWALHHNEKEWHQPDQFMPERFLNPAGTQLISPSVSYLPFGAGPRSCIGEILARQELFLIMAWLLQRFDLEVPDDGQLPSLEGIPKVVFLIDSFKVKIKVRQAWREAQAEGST
The data set is described as follows: Inhibition of human testicular 17α-hydroxylase/C17,20-lyase (enzyme complex as a whole). Format: biochemical. As to conditions: NI = no inhibition. In a few lines: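 Read-out is reverse-phase HPLC quantitation of radiolabeled pregnenolone and its metabolites 17α-hydroxypregnenolone and DHEA. Reactions used human testicular microsomes with graded compound concentrations. DHEA formation defines C17,20-lyase activity, while combined formation of both products defines 17α-hydroxylase activity.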

Data set [7] deals with human androgen receptor (AR) (Homo sapiens, UniProt P10275). The data set is described as follows: Androgen receptor-mediated gene transcription, wild-type AR (luciferase, CV1 cells). It counts as cell-based. As to conditions: against DHT stimulation.
Chain of human androgen receptor (AR) (P10275 whole entry): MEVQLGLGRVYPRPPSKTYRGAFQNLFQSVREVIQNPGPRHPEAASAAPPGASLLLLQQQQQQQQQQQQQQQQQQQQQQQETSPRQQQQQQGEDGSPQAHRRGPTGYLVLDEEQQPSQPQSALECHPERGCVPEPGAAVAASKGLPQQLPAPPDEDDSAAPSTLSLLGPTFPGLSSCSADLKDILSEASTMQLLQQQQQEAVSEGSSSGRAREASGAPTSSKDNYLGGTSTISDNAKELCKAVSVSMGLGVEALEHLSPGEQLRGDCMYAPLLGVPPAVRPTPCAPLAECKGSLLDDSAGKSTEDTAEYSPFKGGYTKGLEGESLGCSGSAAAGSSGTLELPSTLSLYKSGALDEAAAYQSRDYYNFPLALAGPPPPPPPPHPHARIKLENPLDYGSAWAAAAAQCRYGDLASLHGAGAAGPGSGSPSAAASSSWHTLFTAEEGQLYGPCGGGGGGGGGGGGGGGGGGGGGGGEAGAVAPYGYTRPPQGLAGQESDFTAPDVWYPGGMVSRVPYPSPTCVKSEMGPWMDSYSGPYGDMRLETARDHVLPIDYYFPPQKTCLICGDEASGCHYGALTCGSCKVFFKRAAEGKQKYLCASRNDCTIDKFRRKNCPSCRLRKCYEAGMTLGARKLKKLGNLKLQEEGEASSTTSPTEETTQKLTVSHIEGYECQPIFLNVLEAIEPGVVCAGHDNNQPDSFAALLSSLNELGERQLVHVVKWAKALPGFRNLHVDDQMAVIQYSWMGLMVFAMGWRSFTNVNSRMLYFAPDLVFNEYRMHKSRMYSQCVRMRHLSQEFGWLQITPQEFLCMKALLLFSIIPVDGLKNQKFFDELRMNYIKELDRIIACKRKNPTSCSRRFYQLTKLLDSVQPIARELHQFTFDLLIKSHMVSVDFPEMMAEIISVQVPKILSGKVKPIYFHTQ
For data set [8], the system named is mutant AR which is expressed in LNCaP cells. The data set is described as follows: Androgen receptor-mediated gene transcription, mutant AR of LNCaP cells (luciferase, CV1 cells). It counts as cell-based, human.
In a further data set the test system is normal male rats. The data set is described as follows: In vivo studies in normal male rats: hormone levels. Set-up: species or system rat. As to conditions: rat. An excerpt: (§1) Studies in normal male rats have been carried out with 4-pregnen-3-one-20β-carboxaldehyde (I-16) (Li et al., 1992) and with its 20-carboxaldoxime (I-23)(Li et al., 1995).
The subject of data set [9] is LNCaP human prostatic tumors. The experiment in a line: Human prostatic cancer (LNCaP) xenograft in male nude mice. As to conditions: 1 mg/mouse/day s.c. Format: in vivo, human (LNCaP) tumors in BALB/c male athymic mice. The protocol: We have reported that inoculation of MCF-7 breast cancer cells in Matrigel increases mammary tumor formation in nude mice (Yue et al., 1994). The same procedure was therefore utilized to develop tumors from human prostatic cancer cells (LNCAP) in male nude mice. BALB/c male athymic mice, 4-6 weeks old, were inoculated sc with LNCaP cells suspended in Matrigel (10 mg/ml). Four sites per mouse were injected with 1.8×10^6 cells in 0.1 ml Matrigel. Treatment began when the tumor reached about 100 mm^3 in volume. Tumors were measured before the treatment began and once a week during treatment. Tumor volume was calculated by the formula 4/3πr1^2 r2 (r1 <r2).At the end of treatment, the mice were sacrificed and individual tumors were weighed. The latency of tumor development was 30-40 days and overall tumorigenicity was 82%.
In a further experiment, two mice were treated with I-16 (1 mg/mouse/day, s.c.) beginning 45 days after cell inoculation. Two mice received vehicle as controls. […] The mean tumor weight was 198.78±72 mg in I-16 treated mice compared to 386.3±147.2 mg in the control group. In other experiments, I-47 and I-49 were effective in controlling tumor growth. The total tumor volume of the control mice increased to 884.0% of the initial volume.
In general terms: A xenograft is tissue or cells of one species grown in another, often human tumour cells in immunodeficient mice.

For data set [10], the system named is rat 17α-hydroxylase/C17,20-lyase. The data set is described as follows: Inhibition of rat 17α-hydroxylase/C17,20-lyase. Format: biochemical.
From the text: as §1

The next data set has as its system dogs. The note with it: vs finasteride; cited from earlier work.
For data set [11] the following is noted: in vivo; cited from earlier work.
Substrate in data set [12]: CC(=O)[C@H]1CC[C@H]2[C@@H]3CCC4=CC(=O)CC[C@]4(C)[C@H]3CC[C@]12C
The experiment in a line: Inhibition kinetics of rat 17α-hydroxylase, progesterone substrate. It counts as biochemical. As to conditions: other: substrate.

Substrate in data set [13]: CC(=O)[C@@]1(O)CC[C@H]2[C@@H]3CCC4=CC(=O)CC[C@]4(C)[C@H]3CC[C@@]21C
The data set is described as follows: Inhibition kinetics of rat C17,20-lyase, 17α-hydroxyprogesterone substrate. Format: biochemical. As to conditions: other: substrate.

With `C[C@]12CC[C@H](O)CC1=CC[C@@H]1[C@@H]2CC[C@]2(C)C(c3cccnc3)=CC[C@@H]12` [CB7598, 17-(3'-pyridyl)androsta-5,16-diene-3-ol], the figures for the IC50 on 17α-hydroxylase and on C17,20-lyase were 4 nM and 2.9 nM, respectively. The “inhibition of 5α-reductase, literature (in words)” value in the data set with 5α-reductase is recorded as “no activity”.

In the case of `CC(C)(C)NC(=O)[C@H]1CC[C@H]2[C@@H]3CC[C@H]4NC(=O)C=C[C@]4(C)[C@H]3CC[C@]12C` [Finasteride, reference compound], the “reversal of DHT-stimulated LNCaP growth (in words)” value in data set [1] (0.03 nM DHT) is “dose-dependent reversal”. In data set [1] (0.1 nM testosterone, inhibitor 5 μM), the “reversal of testosterone-stimulated LNCaP growth at 5 μM (in words)” value is “almost completely reversed”. Further, the “reversal of testosterone-stimulated LNCaP growth (in words)” value in data set [1] (0.1 nM testosterone, inhibitor 0.3-5 μM, 9 days) is “dose-dependent reversal”. The IC50 in data set [1] (Homo sapiens, LNCaP, 216 h, read-out: concentration reducing the stimulatory effect of testosterone by 50%) was at most 1000 nM; in [3], 14 nM; in data set [3] (Table 2) it was 14 nM; in data set [3] (Table 3, NI = no inhibition) it was 14.4 nM. Besides, the “potency at 5α-reductase Type II vs Type I (in words)” value in data set [2] is “more potent inhibitor of the Type II than of the Type I isoform”. In addition, the “serum testosterone levels (in words)” value in the data set on BPH patients was “increase serum testosterone levels”. Besides, the “gynecomastia in long-term treatment (in words)” value in the data set on BPH patients (long-term treatment) was “some patients developed gynecomastia which led to breast cancer in a few cases”. Further, in the data set on BPH patients (patients), the “reduction of serum DHT” value was 65-80%. The “TRPM-2 expression (in words)” value in the data set on TRPM-2 gene was “not by finasteride treatment”. For the same molecule, the inhibition at 0.01 µM in data set [3] came to 41.2%. Besides, the inhibition at 0.1 µM in data set [3] was determined as 88.3%. In addition, in [3] (read-out: % Inhibition of 5α-reductase, [I] 400 nM), the inhibition at 0.4 µM turned out to be 93%.

As for `CC(=O)N1CCN(c2ccc(OCC3COC(Cn4ccnc4)(c4ccc(Cl)cc4Cl)O3)cc2)CC1` (stereo not drawn) [Ketoconazole], the IC50 on C17,20-lyase is 26 nM. Moreover, the “inhibition of 17α-hydroxylase/C17,20-lyase, literature (in words)” value in data set [4] is “not very potent”. In data set [5], the “side-effects (in words)” value was “inhibition of several other cytochrome P450 steroidogenic enzymes, and reduction of cortisol production”.

As to `C[C@H](C=O)[C@H]1CC[C@H]2[C@@H]3CCC4=CC(=O)CC[C@]4(C)[C@H]3CC[C@]12C` [Compound I-16, 4-pregnen-3-one-20β-carboxaldehyde], the “inhibition of 17α-hydroxylase/C17,20-lyase (in words)” value in data set [6] was “significant inhibition”. In addition, the “antagonism of wild-type AR (in words)” value in data set [7] is “dose-dependent antagonism”. The “agonism/antagonism at mutant AR of LNCaP cells (in words)” value in data set [8] is given as “agonists”. Besides, in the data set on normal male rats, the “reduction of testosterone and DHT levels in serum, testicular and prostatic tissues (in words)” value was “significantly reducing testosterone and DHT levels”. Besides, the “total tumor volume (% of initial volume), 3 weeks” value in data set [9] (3 weeks, two mice, control 281%) came to 173.6%. For the same molecule, the “mean tumor weight, 3-week experiment” value in data set [9] (control 386.3±147.2 mg) is 198.78 ± 72 mg. Moreover, the “inhibition of rat 17α-hydroxylase/C17,20-lyase (in words)” value in data set [10] is reported as “inhibit rat 17α-hydroxylase/C17,20 -lyase”. Also, in data set [3], the inhibition at 0.01 µM is 20.5% and the inhibition at 0.1 µM stood at 87.2%.

For `C[C@]12C=CC(=O)N[C@@H]1CC[C@@H]1[C@@H]2CC[C@]2(C)[C@@H](C(=O)c3ccccc3)CC[C@@H]12` [MK-434], the “serum testosterone levels (in words)” value in the data set with BPH patients is reported as “increase serum testosterone levels”. For the same molecule, the “reduction of prostatic DHT in dogs (in words)” value in the data set with dogs was “reduces prostatic DHT levels in dogs more effectively than finasteride”.

Regarding `CC(=O)[C@H]1CC[C@H]2[C@@H]3CCC4=CC(=O)CC[C@]4(C)[C@H]3CC[C@]12C` [Progesterone], in the data set with 5α-reductase, the “inhibition of 5α-reductase, literature (in words)” value is on record as “potent 5α-reductase inhibitor”. Also, the “metabolism and oral activity (in words)” value in data set [11] is “rapid metabolism in the body and lack of oral activity”.

B1: rat 17α-hydroxylase (Rattus norvegicus) (protein)
chain: MWELVGLLLLILAYFFWVKSKTPGAKLPRSLPSLPLVGSLPFLPRRGHMHVNFFKLQEKYGPIYSLRLGTTTTVIIGHYQLAREVLIKKGKEFSGRPQMVTQSLLSDQGKGVAFADAGSSWHLHRKLVFSTFSLFKDGQKLEKLICQEAKSLCDMMLAHDKESIDLSTPIFMSVTNIICAICFNISYEKNDPKLTAIKTFTEGIVDATGDRNLVDIFPWLTIFPNKGLEVIKGYAKVRNEVLTGIFEKCREKFDSQSISSLTDILIQAKMNSDNNNSCEGRDPDVFSDRHILATVGDIFGAGIETTTTVLKWILAFLVHNPEVKKKIQKEIDQYVGFSRTPTFNDRSHLLMLEATIREVLRIRPVAPMLIPHKANVDSSIGEFTVPKDTHVVVNLWALHHDENEWDQPDQFMPERFLDPTGSHLITPTQSYLPFGAGPRSCIGEALARQELFVFTALLLQRFDLDVSDDKQLPRLEGDPKVVFLIDPFKVKITVRQAWMDAQAEVST
B1: the Km in data set [12] is 29 nM.

B2: rat C17,20-lyase (Rattus norvegicus) (protein)
chain: MWELVGLLLLILAYFFWVKSKTPGAKLPRSLPSLPLVGSLPFLPRRGHMHVNFFKLQEKYGPIYSLRLGTTTTVIIGHYQLAREVLIKKGKEFSGRPQMVTQSLLSDQGKGVAFADAGSSWHLHRKLVFSTFSLFKDGQKLEKLICQEAKSLCDMMLAHDKESIDLSTPIFMSVTNIICAICFNISYEKNDPKLTAIKTFTEGIVDATGDRNLVDIFPWLTIFPNKGLEVIKGYAKVRNEVLTGIFEKCREKFDSQSISSLTDILIQAKMNSDNNNSCEGRDPDVFSDRHILATVGDIFGAGIETTTTVLKWILAFLVHNPEVKKKIQKEIDQYVGFSRTPTFNDRSHLLMLEATIREVLRIRPVAPMLIPHKANVDSSIGEFTVPKDTHVVVNLWALHHDENEWDQPDQFMPERFLDPTGSHLITPTQSYLPFGAGPRSCIGEALARQELFVFTALLLQRFDLDVSDDKQLPRLEGDPKVVFLIDPFKVKITVRQAWMDAQAEVST
On to B2, for which, in [13], the Km is recorded as 76 nM.
